Laboratory results as given in ChEMBL document CHEMBL4725362, “Discovery of Novel Inhibitors of a Critical Brain Enzyme Using a Homology Model and a Deep Convolutional Neural Network” (J Med Chem, 2020).

test: Inhibition of N-terminal MBP tagged and C-terminal 6x-His-tagged ANAT (unknown origin) expressed in Escherichia coli BL21(DE3) assessed as reduction in coenzyme A production using DTNB incubated up to 30 mins in presence of 0.1%Triton X-100; parameters: species or system Homo sapiens

IC50	SMILES
1.25 µM	Cc1c(C(=O)O)sc2[nH]c(=O)cc(CSc3nnc(C4CC4)[nH]3)c12
6.1 µM	CCOC(=O)c1sc(NC(=O)COC(=O)Cn2c(=O)cnc3ccccc32)cc1C
4.82 µM	Nc1cc(N)nc(SCc2ncc(-c3ccc(F)cc3)o2)n1
2.71 µM	Cc1nnc(SCc2nnc(-c3c(-c4ccccc4)noc3C)o2)s1
